Measured values from ChEMBL document CHEMBL5338828, “Structure-Activity Relationships of Bis-Intercalating Peptides and Their Application as Antibody-Drug Conjugate Payloads” (J Med Chem, 2023).

Key:
[1] = Binding affinity to biotinylated hairpin DNA (unknown origin) assessed as binding constant by SPR analysis
[2] = Retention time of the compound by HPLC analysis; assay type: physicochemical
Clupeidae = test: Binding affinity to Herring sperm DNA assessed as melting temperature by differential scanning calorimetric analysis

Q: Which results are given for `CC(C)[C@H]1C(=O)NC[C@@H](NC(=O)c2nc3ccccc3cc2O)C(=O)N2CCCC[C@H]2C(=O)NCC(=O)N(C)CC(=O)N(C)C2(CC2)C(=O)NC[C@@H](NC(=O)c2nc3ccccc3cc2O)C(=O)N2CCCC[C@H]2C(=O)NCC(=O)N(C)CC(=O)N1C`?
A: Kd [1]: 0.7 µM; Retention_time [2]: 15.4 min

Q: For `CC(C)[C@H]1C(=O)N(C)C[C@@H](NC(=O)c2nc3ccccc3cc2O)C(=O)N2CCCC[C@H]2C(=O)NCC(=O)N(C)CC(=O)N(C)[C@@H](C(C)C)C(=O)N(C)C[C@@H](NC(=O)c2nc3ccccc3cc2O)C(=O)N2CCCC[C@H]2C(=O)NCC(=O)N(C)CC(=O)N1C`, which Tm (Clupeidae) is on record?
A: The Tm was 88 °C.

Q: What about the Retention_time [2] of the same compound?
A: The Retention_time was 17.7 min.

Q: With `CC(C)[C@H]1C(=O)NC[C@@H](NC(=O)c2nc3ccccc3cc2O)C(=O)N2CCCC[C@H]2C(=O)NCC(=O)N(C)CC(=O)N2CCC[C@H]2C(=O)NC[C@@H](NC(=O)c2nc3ccccc3cc2O)C(=O)N2CCCC[C@H]2C(=O)NCC(=O)N(C)CC(=O)N1C` as the compound, how does the Kd [1] read?
A: The Kd was 1.1 µM.

Q: And the Tm (Clupeidae)?
A: Its Tm is 88 °C.

Q: And the Retention_time [2]?
A: The Retention_time was 15 min.

Q: With `CC(C)[C@H]1C(=O)N[C@H](C)[C@@H](NC(=O)c2nc3ccccc3cc2O)C(=O)N2CCCC[C@H]2C(=O)NCC(=O)N(C)CC(=O)N(C)[C@@H](C(C)C)C(=O)N[C@H](C)[C@@H](NC(=O)c2nc3ccccc3cc2O)C(=O)N2CCCC[C@H]2C(=O)NCC(=O)N(C)CC(=O)N1C` as the compound, how does the Tm (Clupeidae) read?
A: Its Tm is 87 °C.

Q: What about the Retention_time [2] of the same compound?
A: The Retention_time was 17.6 min.

Q: Which Kd [1] does the source give for `CC(C)[C@H]1C(=O)NC[C@@H](NC(=O)c2nc3ccccc3cc2O)C(=O)N2CCCC[C@H]2C(=O)NCC(=O)N(C)CC(=O)N(C)[C@@H](c2ccccc2)C(=O)NC[C@@H](NC(=O)c2nc3ccccc3cc2O)C(=O)N2CCCC[C@H]2C(=O)NCC(=O)N(C)CC(=O)N1C` here?
A: Its Kd is 1 µM.

Q: What about the Retention_time [2] of the same compound?
A: Its Retention_time is 17.2 min.

Q: Which Kd [1] does the source give for `CC(C)[C@@H]1NC(=O)CN(C)C(=O)CNC(=O)[C@@H]2CCCCN2C(=O)[C@H](NC(=O)c2nc3ccccc3cc2O)CNC(=O)[C@H](C(C)C)NC(=O)CN(C)C(=O)CNC(=O)[C@@H]2CCCCN2C(=O)[C@H](NC(=O)c2nc3ccccc3cc2O)CNC1=O` here?
A: Its Kd is 9 µM.

Q: What about the Retention_time [2] of the same compound?
A: The Retention_time was 14.6 min.

Q: What does the source list for `CC[C@H](C)[C@H]1COC[C@@H](NC(=O)c2nc3ccccc3cc2O)C(=O)N2CCCC[C@H]2C(=O)NCC(=O)N(C)CC(=O)N(C)[C@@H](C(C)C)C(=O)NC[C@@H](NC(=O)c2nc3ccccc3cc2O)C(=O)N2CCCC[C@H]2C(=O)NCC(=O)N(C)CC(=O)N1C`?
A: Kd [1]: 0.05 µM; Retention_time [2]: 19.4 min

Q: For `CCN1CC(=O)N(C)[C@@H](C(C)C)C(=O)NC[C@@H](NC(=O)c2nc3ccccc3cc2O)C(=O)N2CCCC[C@H]2C(=O)NCC(=O)N(CC)CC(=O)N(C)[C@@H](C(C)C)C(=O)NC[C@@H](NC(=O)c2nc3ccccc3cc2O)C(=O)N2CCCC[C@H]2C(=O)NCC1=O`, which Kd [1] is on record?
A: Its Kd is 0.3 µM.

Q: And the Retention_time [2]?
A: Its Retention_time is 18.5 min.

Q: What does the source list for `O=C(N[C@@H]1CNC(=O)[C@@H]2CCCCN2C(=O)COCCNC(=O)[C@@H]2CCCCN2C(=O)[C@H](NC(=O)c2nc3ccccc3cc2O)CNC(=O)[C@@H]2CCCCN2C(=O)COCCNC(=O)[C@@H]2CCCCN2C1=O)c1nc2ccccc2cc1O`?
A: Tm (Clupeidae): 68 °C; Retention_time [2]: 16.1 min

Q: What does the source list for `CN1CC(=O)N2CCCCC[C@H]2C(=O)NC[C@@H](NC(=O)c2nc3ccccc3cc2O)C(=O)N2CCCC[C@H]2C(=O)NCC(=O)N(C)CC(=O)N2CCCCC[C@H]2C(=O)NC[C@@H](NC(=O)c2nc3ccccc3cc2O)C(=O)N2CCCC[C@H]2C(=O)NCC1=O`?
A: Kd [1]: 0.77 µM; Retention_time [2]: 15.8 min

Q: Which results are given for `CC(C)[C@H]1C(=O)NC[C@@H](NC(=O)c2nc3ccccc3cc2O)C(=O)N2CCCC[C@H]2C(=O)NCC(=O)N(C)CC(=O)N(C)[C@@H]([C@@H](C)O)C(=O)NC[C@@H](NC(=O)c2nc3ccccc3cc2O)C(=O)N2CCCC[C@H]2C(=O)NCC(=O)N(C)CC(=O)N1C`?
A: Tm (Clupeidae): 86 °C; Retention_time [2]: 10.6 min

Q: Which Kd [1] does the source give for `CCN1C(=O)CN(C)C(=O)CNC(=O)[C@@H]2CCCCN2C(=O)[C@H](NC(=O)c2nc3ccccc3cc2O)CNC(=O)[C@H](C(C)C)N(CC)C(=O)CN(C)C(=O)CNC(=O)[C@@H]2CCCCN2C(=O)[C@H](NC(=O)c2nc3ccccc3cc2O)CNC(=O)[C@@H]1C(C)C` here?
A: Its Kd is 0.5 µM.

Q: What about the Retention_time [2] of the same compound?
A: Its Retention_time is 17.9 min.

Q: For `CC(C)[C@H]1C(=O)NC[C@@H](NC(=O)c2nc3ccccc3cc2O)C(=O)N2CCCC[C@H]2C(=O)NCCOCC(=O)N(C)[C@@H](C(C)C)C(=O)NC[C@@H](NC(=O)c2nc3ccccc3cc2O)C(=O)N2CCCC[C@H]2C(=O)NCCOCC(=O)N1C`, which Tm (Clupeidae) is on record?
A: Its Tm is 68 °C.

Q: And the Retention_time [2]?
A: The Retention_time was 16 min.

Q: With `CC(C)[C@H]1COC[C@@H](NC(=O)c2nc3ccccc3cc2O)C(=O)N2CCCC[C@H]2C(=O)NCC(=O)N(C)CC(=O)N(C)[C@@H](C(C)C)COC[C@@H](NC(=O)c2nc3ccccc3cc2O)C(=O)N2CCCC[C@H]2C(=O)NCC(=O)N(C)CC(=O)N1C` as the compound, how does the Tm (Clupeidae) read?
A: Its Tm is 91 °C.

Q: And the Retention_time [2]?
A: The Retention_time was 18.2 min.

Q: For `CC(C)[C@H]1C(=O)O[C@H](C)[C@@H](NC(=O)c2nc3ccccc3cc2O)C(=O)N2CCCC[C@H]2C(=O)NCC(=O)N(C)CC(=O)N(C)[C@@H](C(C)C)C(=O)O[C@H](C)[C@@H](NC(=O)c2nc3ccccc3cc2O)C(=O)N2CCCC[C@H]2C(=O)NCC(=O)N(C)CC(=O)N1C`, which Tm (Clupeidae) is on record?
A: The Tm was 85 °C.

Q: And the Retention_time [2]?
A: Its Retention_time is 21.6 min.

Q: What does the source list for `CC(C)[C@H]1C(=O)NC[C@@H](NC(=O)c2nc3ccccc3cc2O)C(=O)N2CCCC[C@H]2C(=O)NCC(=O)N(C)CC(=O)N(C)C(C)(C)C(=O)NC[C@@H](NC(=O)c2nc3ccccc3cc2O)C(=O)N2CCCC[C@H]2C(=O)NCC(=O)N(C)CC(=O)N1C`?
A: Kd [1]: 0.7 µM; Retention_time [2]: 15.8 min

Q: With `C[C@H]1NC(=O)[C@@H]2CCCCN2C(=O)CN(C)C(=O)CNC(=O)[C@@H]2CCCCN2C(=O)[C@H](NC(=O)c2nc3ccccc3cc2O)[C@@H](C)NC(=O)[C@@H]2CCCCN2C(=O)CN(C)C(=O)CNC(=O)[C@@H]2CCCCN2C(=O)[C@@H]1NC(=O)c1nc2ccccc2cc1O` as the compound, how does the Kd [1] read?
A: The Kd was 0.009 µM.

Q: And the Retention_time [2]?
A: Its Retention_time is 16.7 min.

Q: With `CC(C)[C@H]1C(=O)NC[C@@H](NC(=O)c2nc3ccccc3cc2O)C(=O)N2CCCC[C@H]2C(=O)NCC(=O)N(C)CC(=O)N(C)[C@@H]([C@H](C)OC(C)(C)C)C(=O)NC[C@@H](NC(=O)c2nc3ccccc3cc2O)C(=O)N2CCCC[C@H]2C(=O)NCC(=O)N(C)CC(=O)N1C` as the compound, how does the Tm (Clupeidae) read?
A: Its Tm is 88 °C.

Q: What about the Retention_time [2] of the same compound?
A: Its Retention_time is 18.4 min.

Q: Which Retention_time [2] does the source give for `CC[C@@H](C)[C@H]1C(=O)NC[C@@H](NC(=O)c2nc3ccc(Br)cc3cc2O)C(=O)N2CCCC[C@H]2C(=O)NCC(=O)N(C)CC(=O)N(C)[C@@H]([C@H](C)CC)C(=O)NC[C@@H](NC(=O)c2nc3ccc(Br)cc3cc2O)C(=O)N2CCCC[C@H]2C(=O)NCC(=O)N(C)CC(=O)N1C` here?
A: The Retention_time was 21 min.

Q: Which results are given for `CC(C)[C@H]1C(=O)NC[C@@H](NC(=O)c2nc3ccccc3cc2O)C(=O)N2CCCC[C@H]2C(=O)NCC(=O)N(C)CC(=O)N(C)C2(CCC2)C(=O)NC[C@@H](NC(=O)c2nc3ccccc3cc2O)C(=O)N2CCCC[C@H]2C(=O)NCC(=O)N(C)CC(=O)N1C`?
A: Kd [1]: 0.3 µM; Retention_time [2]: 17 min

Q: Which results are given for `CC[C@H](C)[C@H]1C(=O)N[C@H](C)[C@@H](NC(=O)c2nc3ccccc3cc2O)C(=O)N2CCCC[C@H]2C(=O)NCC(=O)N(C)CC(=O)N(C)[C@@H]([C@@H](C)CC)C(=O)N[C@H](C)[C@@H](NC(=O)c2nc3ccccc3cc2O)C(=O)N2CCCC[C@H]2C(=O)NCC(=O)N(C)CC(=O)N1C`?
A: Tm (Clupeidae): 85 °C; Retention_time [2]: 20.9 min
